US12433857B2, “Conjugate and cancer therapeutic agent” (Tokyo Institute of Technology, priority 2019, dated 2025)
“Also recorded” adds a separate entry of the source. Counter-ions that a name gives are not always drawn.

Experiments:
[1] = Non-Patent Documents 4 to 6; cited from earlier work
[2] = Pharmacokinetics (blood retention, tumor accumulation) in subcutaneous CT26 tumor mouse model; assay type: in vivo; conditions: intravenous
Method: To evaluate the blood retention and the tumor accumulation of DFO and PEG-P[Asp(DFO)m]n), a DFO/Ga (III) complex and a PEG-P[Asp(DFO)m]n/Ga (III) complex were intravenously injected into the subcutaneous CT26 tumor mouse model, and the Ga contents in the blood and the tumor after a predetermined period of time were measured by ICP-MS.
300 μL of a 26.8 mM GaCl3/D-PBS solution was added to 2.70 mL of a 16.9 mM DFO/D-PBS solution, and the resultant solution was stirred overnight. The pH was adjusted to 7.4 with NaOH, and then the solution was filtered through a filter.
300 μL of 26.8 mM GaCl3/D-PBS solution was added to 2.70 mL of a 1.71 mM PEG-P[Asp(DFO)10]35/D-PBS solution (DFO concentration=16.9 mM), and the resultant solution was stirred overnight. The reaction solution was placed in an ultrafiltration membrane (MWCO=10 kD) and subjected to ultrafiltration five times. 3 mL of D-PBS was added to the purified solution, and the resultant solution was filtered through a filter. […]
100 μl of the prepared solution described above was intravenously administered (DFO: […]) to the tail vein of a model mouse of which the tumor size reached about 200 mm^3. […] After filling up to 10 mL with pure water and filtration with a hydrophobic filter, the gallium contents of the blood and the various organs were measured by ICP-MS. […]

DLD-1 cells [3] = assay: Cell proliferation suppressive action by CCK-8 assay; assay type: cell-based, human; conditions: 72 hours, CCK-8, absorbance at 450 nm
Method: The cancer cell proliferation suppressive action of PEG-P[Asp(DFO)m]n was evaluated by CCK-8 assay.
[Preparation of DFO Solution, PEG-P[Asp(DFO)10]35 Solution, and PEG-P[Asp(DFO)26]78 Solution] • DFO/D-PBS solution: 3.00 mM • PEG-P[Asp(DFO)10]35/D-PBS solution: 0.305 mM (DFO concentration=3.00 mM) • PEG-P[Asp(DFO)26]78/D-PBS solution: 0.118 mM (DFO concentration=3.00 mM)
DLD-1 cells were seeded on a 96-well plate at 1.0×10^3 cells/well and pre-cultured at 37° C. under 5% CO2 for 24 hours. 10 μL of the prepared solution described above was added to each well followed by incubating for 72 hours. 10 μL of CCK-8 solution was added to each well, and after incubating for 2 hours, the absorbance at 450 nm was measured. The results are shown as the value of mean±S.D. (n=5), and a statistically significant difference was evaluated by the t-test (****p<0.0001).

DLD-1 cells [4] = assay: Apoptosis induction by PI staining and Annexin V staining; assay type: cell-based, human; conditions: 1.00 mM DFO-concentration solution diluted 10-fold, 24 hours
Method: In order to investigate whether DFO and PEG-P[Asp(DFO)m]n would induce apoptosis, apoptotic cells were detected by PI staining and Annexin V staining.
[Preparation of DFO Solution and PEG-P[Asp(DFO)10]35 Solution] • DFO/D-PBS solution: 1.00 mM • PEG-P[Asp(DFO)10]35/D-PBS solution: 100 μM (DFO concentration=1.00 mM)
DLD-1 cells were seeded on a 6-well plate at 1.0×10^5 cells/well and pre-cultured at 37° C. under 5% CO2 for 24 hours. After removing the solution, 3 mL of the prepared solution described above, diluted 10-fold with RPMI, was added to each well followed by incubating for 24 hours. After washing with 3 mL of D-PBS, 700 μL of a Trypsin-EDTA solution was added thereto followed by incubating for 10 min. After confirming that the cells had peeled off under an optical microscope, 700 μL of RPMI was added and suspended sufficiently. The suspension was centrifuged at 1,200 rpm for 3 min to remove the supernatant. 500 μL of RPMI was added, the number of cells was measured, and the cells in each sample were made to the same number. The suspension was centrifuged at 1,200 rpm for 3 min to remove the supernatant. […] After adding 400 μL of the binding buffer, the suspension was filtered through a cell strainer, and the fluorescence of PI and Annexin V was measured using FCM. […] The statistical significance was evaluated by Tukey's multiple comparison test (**** p<0.0001).

DLD-1 cells [5] = assay: Free iron in the cytoplasm detected with FerroOrange; assay type: cell-based, human; conditions: 2.00 mM DFO-concentration solution diluted 10-fold, 24 hours
Method: To investigate whether DFO and PEG-P[Asp(DFO)m]n would decrease free iron in the cytoplasm, the free iron in the cytoplasm of cells treated with DFO and PEG-P[Asp(DFO)m]n was detected with FerroOrange.
[Preparation of DFO Solution and PEG-P[Asp(DFO)10]35 Solution] • DFO/D-PBS solution: 2.00 mM • PEG-P[Asp(DFO)10]35/D-PBS solution: […] (DFO concentration=2.00 mM) [Observation with Confocal Microscope]
DLD-1 cells were seeded on 35 mm^2 glass base dishes at 3.0×10^5 cells/well and pre-cultured at 37° C. under 5% CO2 for 24 hours. After removing the solution, 2 mL of the prepared solution described above, diluted 10-fold with RPMI, was added to each dish followed by incubating for 24 hours. After washing with 2 mL of serum-free RPMI, 1 mL of serum-free RPMI containing […] FerroOrange was added thereto followed by incubating in a dark place for 30 min. Thereafter, the fluorescence of FerroOrange was observed by CLSM.
DLD-1 cells were seeded on a 96-well plate at 1.0×10^4 cells/well and pre-cultured at 37° C. under 5% CO2 for 24 hours. After removing the solution, 100 μL of the prepared solution described above, diluted 10-fold with RPMI, was added to each well followed by incubating for 24 hours. […] Then, the fluorescence intensity of FerroOrange was measured with a plate reader. […] The statistical significance was evaluated by Tukey's multiple comparison test (****p<0.0001).

[6] = system: various cancer cell lines; conditions: Non-Patent Documents 1 to 3; cited from earlier work
DLD-1 cells [7] = assay: DNA synthesis inhibition by BrdU staining; assay type: cell-based, human; conditions: 72 hours
Method: To investigate the mechanism of cell cycle arrest in the S phase by DFO and PEG-P[Asp(DFO)m]n, DNA synthesis inhibition was evaluated by BrdU staining.
[Preparation of DFO Solution and PEG-P[Asp(DFO)10]35 Solution] • DFO/D-PBS solution: 450 μM • PEG-P[Asp(DFO)10]35/D-PBS solution: […] (DFO concentration=600 μM) [Observation with Confocal Microscope]
DLD-1 cells were seeded on 35 mm^2 glass base dishes at 1.0×10^5 cells/well and pre-cultured at 37° C. under 5% CO2 for 24 hours. After removing the solution, 3 mL of the prepared solution described above, diluted 10-fold with RPMI, was added to each well followed by incubating for 72 hours. Then, 330 μL of a 10 mM BrdU/D-PBS solution was added thereto followed by incubating for 1 hour. After removing the solution, 1 mL of 1.0 M HCl solution was added thereto followed by incubating for 10 min. After removing the solution, 1 mL of a 0.1 M sodium tetraborate buffer (pH 8.5) was added thereto followed by incubating for 30 min. […]
DLD-1 cells were seeded on a 6-well plate at 2.0×10^5 cells/well and pre-cultured at 37° C. under 5% CO2 for 24 hours. […] The number of cells was measured, and the cells in each sample were made to the same number. […] Finally, the suspension was filtered through a cell strainer, and the fluorescence of BrdU was measured using FCM.

DLD-1 cells [8] = assay: Cell cycle analysis by propidium iodide staining; assay type: cell-based, human; conditions: 72 hours
Method: The cell cycle was analyzed by propidium iodide (PI) staining to investigate the mechanism of cancer cell proliferation suppression of DFO and PEG-P[Asp(DFO)m]n.
[Preparation of DFO Solution and PEG-P[Asp(DFO)10]35 Solution] • DFO/D-PBS solution: 45.0 μM • PEG-P[Asp(DFO)10]35/D-PBS solution: 61.0 μM (DFO concentration=600 μM)
DLD-1 cells were seeded on a 6-well plate at 2.0×10^5 cells/well and pre-cultured at 37° C. under 5% CO2 for 24 hours. The prepared solution described above was diluted 10-fold with RPMI, and then 3 mL was added to each well followed by incubating for 72 hours. After washing with 3 mL of D-PBS, 700 μL of a Trypsin-EDTA solution was added thereto followed by incubating for 10 min. After confirming that the cells had been peeled off under an optical microscope, 700 μL of D-PBS containing 10% FBS was added thereto, and the cells were sufficiently suspended. The suspension was centrifuged at 1,200 rpm for 3 min to remove the supernatant. 500 μL of D-PBS was added to the cell pellet, which was subsequently suspended. The suspension was dropwise added to 4.5 mL of 70% ethanol and fixed in a −20° C. freezer overnight. […] Finally, the suspension was filtered through a cell strainer, and the fluorescence of propidium iodide was measured using FCM. The measured data were analyzed by ModFit LT. […]

## CC(=O)N(O)CCCCCNC(=O)CCC(=O)N(O)CCCCCNC(=O)CCC(=O)N(O)CCCCCN [DFO, Deferoxamine mesylate]
[1]
  half-life of the in-blood concentration: ≤ 20 min
[2]
  blood retention (in words): rapid disappearance from the blood; also recorded: disappeared from the blood at an early stage
DLD-1 cells [3]
  cell proliferation suppression: significantly suppressed the proliferation
DLD-1 cells [4]
  proportion of apoptotic and necrotic cells: significantly increased the proportion of apoptotic and necrotic cells
DLD-1 cells [5]
  free iron in the cytoplasm (FerroOrange fluorescence): markedly decreased free iron in the cytoplasm
[6]
  cell proliferation suppressive effect: cell proliferation suppressive effect through cell cycle arrest
DLD-1 cells [7]
  DNA synthesis inhibition (BrdU uptake): BrdU uptake was significantly suppressed
DLD-1 cells [8]
  cell cycle arrest: induced cell cycle arrest in the S phase
